Where two headings read alike, the source gives them in different places. Numbered stars: 1 amine (or outer) side, 2 acyl side, 3 side chain; on linkers, the order of the positions; unused ones are H or OH. Bridge positions count the residues as written; N and C are the ends. Primed or numbered codes have the meaning given here. Peptide text beside a SMILES is read from it. I, II: the chains in the order shown. * marks the point of attachment. X8 = NC(=O)[C@H](CCCCNC(=O)CCOCCOCCOCCOCCNC(=O)CCOCCOCCOCCN(CCOCCOCCOCCC(=O)NCCOCCOCCOCCOCCC(=O)NCCCC[C@H](NC(=O)CCC(=O)NCCCOCCOCCOCCCN[*:2])C(N)=O)C(=O)CNC(=O)CCOCCOCCOCCOCCNC(=O)CCC(=O)N1Cc2ccccc2C#Cc2ccccc21)NC(=O)CCC(=O)NCCCOCCOCCOCCCN[*:1]; X15 = NC(=O)[C@H](CCCCNC(=O)CCOCCOCCOCCN(CCOCCOCCOCCC(=O)NCCCC[C@H](NC(=O)CCC(=O)NCCCOCCOCCOCCCN[*:2])C(N)=O)C(=O)CNC(=O)CCOCCOCCOCCOCCNC(=O)CCC(=O)N1Cc2ccccc2C#Cc2ccccc21)NC(=O)CCC(=O)NCCCOCCOCCOCCCN[*:1]; X1 = NC(=O)[C@H](CCCCNC(=O)CCOCCOCCOCCOCCNC(=O)CCC(=O)N1Cc2ccccc2C#Cc2ccccc21)NC(=O)CCC(=O)NCCCOCCOCCOCCCN*; K(PEG4-DBCO-FEA) = Lys whose side chain carries PEG4-DBCO conjugated to fluoroethylazide (FEA); Ttds(4) = trioxatridecan-succinamic acid (linker), O=C(CCC(=O)[*:2])NCCCOCCOCCOCCCN[*:1]; Ttds(3) = Trioxatridecan-succinamic acid linker, O=C(CCC(=O)[*:2])NCCCOCCOCCOCCCN[*:1]
Columns and labels:
rhDLL3-Fc = target: T1, rhDLL3-Fc (Homo sapiens, UniProt Q9NYJ7); assay: SPR binding / off-rate screening (Biacore T200); details: for binding to rhDLL3-Fc, complex half-life: single point SPR
T1 construct: The recombinant DLL3 ectodomain (rhDLL3-Fc) was biotinylated; Fc
T1 sequence (Q9NYJ7 27-492 limits assumed): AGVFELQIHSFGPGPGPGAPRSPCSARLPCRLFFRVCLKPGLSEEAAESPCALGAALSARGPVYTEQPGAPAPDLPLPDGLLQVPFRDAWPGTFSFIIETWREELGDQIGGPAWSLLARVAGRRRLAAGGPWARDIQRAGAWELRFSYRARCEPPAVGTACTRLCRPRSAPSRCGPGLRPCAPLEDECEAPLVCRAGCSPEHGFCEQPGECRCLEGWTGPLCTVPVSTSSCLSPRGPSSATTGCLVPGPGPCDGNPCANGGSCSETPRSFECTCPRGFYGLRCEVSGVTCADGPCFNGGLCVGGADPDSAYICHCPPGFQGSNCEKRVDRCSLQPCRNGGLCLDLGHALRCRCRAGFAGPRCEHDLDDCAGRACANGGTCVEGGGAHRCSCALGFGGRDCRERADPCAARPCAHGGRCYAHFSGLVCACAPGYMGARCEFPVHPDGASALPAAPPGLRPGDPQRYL
Procedure: […] The recombinant DLL3 ectodomain (rhDLL3-Fc) was biotinylated using EZ-Link Sulfo-NHS-LC-LC-Biotin Kit according to the manufacturer's protocol (Pierce by Thermo Fisher Scientific). The recombinant protein was incubated with an excess of NHS-LC-LC Biotin ester, in a molar ratio of 1:3 (protein: biotin), at 25° C. for 90 min. The un-reacted biotin ester was removed by subsequent buffer exchange on 0.5 ml Zeba spin desalting columns 7K MWCO (Pierce by Thermo Fisher Scientific).
The off-rate screening of the peptides was done using a Biacore T200 instrument (Cytiva, Sweden). […] Sensorgrams were analyzed by Biacore T200 Evaluation Software 3.0 (Cytiva, Sweden): specific binding was obtained by subtracting unspecific binding to naked biosensors and a zero analyte concentration made of binding assay buffer (double referencing). […]

[1] = target: T2, recombinant DLL3 ectodomain (rhDLL3-Fc) (Homo sapiens, UniProt Q9NYJ7); assay: Binding kinetic assay using Bio-layer interferometry (BLI); details: for binding mode to DLL3: peptides at 20, 4 and 0.8 μM, fit to 1:1 Langmuir binding model; for affinity: wider dose-response 10×KD to 0.1×KD
T2 construct: The recombinant DLL3 ectodomain (rhDLL3-Fc) was biotinylated; Fc
T2 sequence (Q9NYJ7 27-492 limits assumed): T1 sequence (Q9NYJ7 27-492 limits assumed)
Procedure: Binding kinetic assays were performed using Bio-layer interferometry (BLI) technology. The recombinant DLL3 ectodomain (rhDLL3-Fc) was biotinylated using EZ-Link Sulfo-NHS-LC-LC-Biotin Kit according to the manufacturer's protocol (Pierce by Thermo Fisher Scientific). The recombinant protein was incubated with an excess of NHS-LC-LC Biotin ester, in a molar ratio of 1:3 (protein: biotin), at 25° C. for 90 min. The un-reacted biotin ester was removed by subsequent buffer exchange on 0.5 ml Zeba spin desalting columns 7K MWCO (Pierce by Thermo Fisher Scientific).

[2] = Table 8, curve fitting of SPR sensorgrams, read-out: koff
[3] = Table 8, curve fitting of SPR sensorgrams, read-out: kon
[4] = Table 4, ± values from three independent experiments, read-out: RT (residence time) (converted)
[5] = range over the seven peptides, read-out: residence time

| Compound | koff (rhDLL3-Fc; [2]) [s⁻¹] | kon (rhDLL3-Fc; [3]) [M⁻¹ s⁻¹] | residence time [1, 4] [min] | binding to rhDLL3-Fc, complex half-life (rhDLL3-Fc) | further results |
| --- | --- | --- | --- | --- | --- |
| CC(C)[C@H](NC(=O)[C@@H](NC(=O)[C@H](CCC(=O)O)NC(=O)[C@H](C)N)[C@@H](C)O)C(=O)N[C@@H](CCC(=O)O)C(=O)N[C@@H](Cc1ccccc1)C(=O)N[C@@H](Cc1c[nH]c2ccccc12)C(=O)N[C@@H](Cc1c[nH]c2ccccc12)C(=O)N[C@H]1CSSC[C@@H](C(=O)N[C@H](C(=O)N[C@@H](Cc2c[nH]c3ccccc23)C(N)=O)[C@@H](C)O)NC(=O)[C@H]([C@@H](C)O)NC(=O)[C@H](Cc2c[nH]c3ccccc23)NC(=O)[C@H](CC(N)=O)NC(=O)[C@H](CCC(=O)O)NC(=O)[C@H](CO)NC(=O)[C@H](CC(N)=O)NC(=O)CNC(=O)[C@H](CC(N)=O)NC1=O [PepSP1171] | 0.0097 | 140000 | 1.83 | – | Kd (rhDLL3-Fc; Table 8, curve fitting of SPR sensorgrams): 70 nM; Kd ([1]; Table 4, global fitting 1:1 Langmuir, koff vs kon ratio, ± values from three independent experiments): 70 ± 19 nM; binding mode to DLL3 [1]: dose-response saturable binding; residence time [1, 5]: 1 to 3 min; affinity [1]: double-digit nM range |
| CC(C)[C@H](NC(=O)[C@@H](NC(=O)[C@H](CCC(=O)O)NC(=O)[C@H](C)N)[C@@H](C)O)C(=O)N[C@@H](CCC(=O)O)C(=O)N[C@@H](Cc1ccccc1)C(=O)N[C@@H](Cc1ccc(O)cc1)C(=O)NCC(=O)N[C@H]1CSSC[C@@H](C(=O)N[C@H](C(=O)N[C@@H](Cc2c[nH]c3ccccc23)C(N)=O)[C@@H](C)O)NC(=O)[C@H]([C@@H](C)O)NC(=O)[C@H](Cc2ccc(O)cc2)NC(=O)[C@H](CC(=O)O)NC(=O)[C@H](CC(N)=O)NC(=O)[C@H](CCCNC(=N)N)NC(=O)[C@H](CC(=O)O)NC(=O)CNC(=O)[C@H](Cc2ccc(O)cc2)NC1=O [PepSP1178] (H-AETVEFYGCYGDRNDYTCTW-NH2; disulfide 9-18; N-terminus assumed) | – | – | 1.27 | – | binding mode to DLL3 [1]: dose-response saturable binding; residence time [1, 5]: 1 to 3 min; affinity [1]: double-digit nM range |
| CC(C)[C@H](NC(=O)[C@@H](NC(=O)[C@H](CCC(=O)O)NC(=O)[C@H](C)N)[C@@H](C)O)C(=O)N[C@@H](CCC(=O)O)C(=O)N[C@@H](Cc1ccccc1)C(=O)N[C@@H](Cc1c[nH]c2ccccc12)C(=O)N[C@@H](CO)C(=O)N[C@H]1CSSC[C@@H](C(=O)NCC(=O)N[C@@H](Cc2c[nH]c3ccccc23)C(N)=O)NC(=O)[C@H](CO)NC(=O)[C@H](Cc2ccc(O)cc2)NC(=O)[C@H]([C@@H](C)O)NC(=O)[C@H](Cc2ccc(O)cc2)NC(=O)[C@H](CCC(=O)O)NC(=O)[C@H](CC(=O)O)NC(=O)[C@H](C)NC(=O)[C@H](C)NC(=O)CNC(=O)CNC(=O)[C@H](Cc2c[nH]c3ccccc23)NC(=O)[C@H](Cc2c[nH]c3ccccc23)NC(=O)[C@H](CCCCN)NC1=O [PepSP1182] (H-AETVEFWSCKWWGGAADEYTYSCGW-NH2; disulfide 9-23; N-terminus assumed) | – | – | 1.61 | – | binding mode to DLL3 [1]: dose-response saturable binding; residence time [1, 5]: 1 to 3 min; affinity [1]: double-digit nM range |
| C[C@@H](O)[C@@H]1NC(=O)CNC(=O)[C@H]([C@@H](C)O)NC(=O)[C@@H](NC(=O)CNC(=O)[C@@H](N)Cc2c[nH]c3ccccc23)CSSC[C@@H](C(=O)N[C@@H](Cc2c[nH]c3ccccc23)C(=O)N[C@@H](Cc2c[nH]c3ccccc23)C(N)=O)NC(=O)[C@H]([C@@H](C)O)NC(=O)[C@H](CCC(=O)O)NC(=O)[C@H](CC(N)=O)NC(=O)CNC(=O)[C@H](Cc2c[nH]c3ccccc23)NC1=O [PepSP1213] (H-WGCTGTWGNETCWW-NH2; disulfide 3-12; N-terminus assumed) | – | – | 0.0227 | – | – |
| C[C@@H](O)[C@H](NC(=O)[C@@H]1CSSC[C@H](NC(=O)[C@H](CC(=O)O)NC(=O)[C@@H](N)Cc2c[nH]c3ccccc23)C(=O)N[C@@H](Cc2c[nH]c3ccccc23)C(=O)NCC(=O)N[C@@H](CC(N)=O)C(=O)N[C@@H]([C@@H](C)O)C(=O)N[C@@H](CC(=O)O)C(=O)N[C@@H](CC(=O)O)C(=O)N[C@@H](Cc2c[nH]c3ccccc23)C(=O)N[C@@H]([C@@H](C)O)C(=O)N1)C(=O)N[C@@H](Cc1c[nH]c2ccccc12)C(N)=O [PepSP1269] (H-WDCWGNTDDWTCTW-NH2; disulfide 3-12; N-terminus assumed) | – | – | 0.333 | – | – |
| CC(=O)N[C@@H](C)C(=O)N[C@@H](CCC(=O)O)C(=O)N[C@H](C(=O)N[C@H](C(=O)N[C@@H](CCC(=O)O)C(=O)N[C@@H](Cc1ccccc1)C(=O)N[C@@H](Cc1c[nH]c2ccccc12)C(=O)N[C@@H](Cc1c[nH]c2ccccc12)C(=O)N[C@H]1CSSC[C@@H](C(=O)N[C@H](C(=O)N[C@@H](Cc2c[nH]c3ccccc23)C(=O)NCC(=O)NCC(=O)NCCCOCCOCCOCCCNC(=O)CCC(=O)N[C@@H](CCCCNC(=O)CCOCCOCCOCCOCCNC(=O)CCC(=O)N2Cc3ccccc3C#Cc3ccccc32)C(N)=O)[C@@H](C)O)NC(=O)[C@H]([C@@H](C)O)NC(=O)[C@H](Cc2c[nH]c3ccccc23)NC(=O)[C@H](CC(N)=O)NC(=O)[C@H](CCC(=O)O)NC(=O)[C@H](CO)NC(=O)[C@H](CC(N)=O)NC(=O)CNC(=O)[C@H](CC(N)=O)NC1=O)C(C)C)[C@@H](C)O [PepSP1462] (Ac-AETVEFWWCNGNSENWTCTWGG-X1; disulfide 9-18 (inferred)) | – | – | – | – | koff (rhDLL3-Fc): 0.0014 s⁻¹; kon (rhDLL3-Fc): 230000 M⁻¹ s⁻¹ |
| CCCCOCCOCCOCCC(=O)CCCCCCCCCCCCCCCC(=O)CCC(=O)NCCCOCCOCCOCCCNC(=O)CCC(=O)CCCCC[C@@H](CC(=O)CCC(=O)NCCCOCCOCCOCCCNC(=O)CNC(=O)CNC(=O)[C@@H](Cc1c[nH]c2ccccc12)NC(=O)[C@H](CC(=O)[C@H]1CCCC[C@@H](CN[C@@H](Cc2c[nH]c3ccccc23)NC(=O)[C@@H](Cc2c[nH]c3ccccc23)NC(=O)[C@H](CC(=O)[C@@H](CCC(=O)O)CC(=O)[C@H](CC(=O)[C@](C)(NC(=O)[C@@H](CCC(C)=O)CC(=O)CCC(C)=O)C(C)C)C(C)C)Cc2ccccc2)C(=O)C[C@H](CC(C)=O)C(=O)NCC(=O)NC(CC(C)=O)C(=O)C[C@H](CC)C(=O)NC(CCC(C)=O)C(=O)C[C@H](CC(C)=O)C(=O)CC(Cc2c[nH]c3ccccc23)C(=O)C[C@H]([C@H](C)O)C(=O)C1)[C@H](C)O)C(C)=O (stereo partly drawn) [PepSP1489] | 0.00037 | 110000 | – | – | – |
| Ac-AETVEFWWCNGNSENWTCTW-GG-Ttds-K(PEG4-DBCO-FEA)-NH2 (Ac-AETVEFWWCNGNSENWTCTWGG-{Ttds(3)-K(PEG4-DBCO-FEA)-NH2}; cysteine pairing not given here) [PepSP1538] | – | – | – | tight rhDLL3-Fc binders with a stable complex half-life | – |
| I: Ac-AETVEFWWCNGNSENWTCTWGG / II: Ac-AETVEFWWCNGNSENWTCTWGG (disulfide I:9-I:18, II:9-II:18; linker I:C-II:C via X8) [PepSP1488] | 0.00031 | 120000 | – | – | – |
| I: Ac-AETVEFWWCNGNSENWTCTWGG / II: Ac-AETVEFWWCNGNSENWTCTWGG (disulfide I:9-I:18, II:9-II:18; linker I:C-II:C via X15) [PepSP1487] | 0.00042 | 76000 | – | – | – |
| [Ac-AETVEFWWCNGNSENWTCTW-GG-Ttds-K(PEG3)]2-PEG4-DBCO-FEA (Ac-AETVEFWWCNGNSENWTCTWGG-{Ttds(4)-K(PEG3)}; not fully specified (bridges); printed as [Ac-AETVEFWWCNGNSENWTCTW-GG-Ttds-K(PEG3)]2-PEG4-DBCO-FEA; cysteine pairing not given here; also: dimer linked via PEG4-DBCO-FEA) [PepSP1581] | – | – | – | tight rhDLL3-Fc binders with a stable complex half-life | – |
| [Ac-AETVEFWWCNGNSENWTCTW-GG-Ttds-K(PEG4-PEG3)]2-PEG4-DBCO-FEA [PepSP1582] | – | – | – | tight rhDLL3-Fc binders with a stable complex half-life | – |
| [Ac-AETVEFWWCNGNSENWTCTW-GG-Ttds-K(Ttds-Ttds-PEG3)]2-PEG4-DBCO- [PepSP1583] | – | – | – | tight rhDLL3-Fc binders with a stable complex half-life | – |

— patent US20250074943A1, “DLL3 BINDING PEPTIDES AND USES THEREOF” (AMGEN INC., priority 2021, published 2025)
